PubChem BioAssay (NCI)
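Method: 48-hour compound exposure of cells in 96-well plates, five concentrations, linear interpolation of endpoints. GI50: concentration for 50% inhibition of growth. The concentration for full growth arrest is given as TGI.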

What was measured:
Assay in all cases: NCI-60 cell line screen, 48 h
K-562 leukemia = system: K-562 leukemia
SF-268 CNS = system: SF-268 CNS
OVCAR-3 ovarian = system: OVCAR-3 ovarian
OVCAR-8 ovarian = system: OVCAR-8 ovarian
NCI-H522 lung = system: NCI-H522 lung
OVCAR-5 ovarian = system: OVCAR-5 ovarian
T-47D breast = system: T-47D breast
SNB-19 CNS = system: SNB-19 CNS
RPMI-8226 leukemia = system: RPMI-8226 leukemia
COLO 205 colon = system: COLO 205 colon
NCI-H226 lung = system: NCI-H226 lung
SR leukemia = system: SR leukemia
SF-539 CNS = system: SF-539 CNS
SK-MEL-5 melanoma = system: SK-MEL-5 melanoma
SF-295 CNS = system: SF-295 CNS
TK-10 renal = system: TK-10 renal
HCT-116 colon = system: HCT-116 colon
HL-60(TB) leukemia = system: HL-60(TB) leukemia
MALME-3M melanoma = system: MALME-3M melanoma
PC-3 prostate = system: PC-3 prostate
MOLT-4 leukemia = system: MOLT-4 leukemia
KM12 colon = system: KM12 colon
NCI-H23 lung = system: NCI-H23 lung
UACC-62 melanoma = system: UACC-62 melanoma
SK-OV-3 ovarian = system: SK-OV-3 ovarian
HOP-92 NSCLC = system: HOP-92 NSCLC
M14 melanoma = system: M14 melanoma
CAKI-1 renal = system: CAKI-1 renal
NCI-H460 lung = system: NCI-H460 lung
UO-31 renal = system: UO-31 renal
U251 CNS = system: U251 CNS
MDA-MB-468 breast = system: MDA-MB-468 breast
DU-145 prostate = system: DU-145 prostate
HS 578T breast = system: HS 578T breast
UACC-257 melanoma = system: UACC-257 melanoma
SK-MEL-28 melanoma = system: SK-MEL-28 melanoma
A549 NSCLC = system: A549 NSCLC
SN12C renal = system: SN12C renal
SW-620 colon = system: SW-620 colon
MCF7 breast = system: MCF7 breast
IGROV1 ovarian = system: IGROV1 ovarian
CCRF-CEM leukemia = system: CCRF-CEM leukemia
RXF 393 renal = system: RXF 393 renal
BT-549 breast = system: BT-549 breast
HCT-15 colon = system: HCT-15 colon
LOX IMVI melanoma = system: LOX IMVI melanoma
MDA-MB-435 = system: MDA-MB-435
HCC-2998 colon = system: HCC-2998 colon
NCI/ADR-RES ovarian = system: NCI/ADR-RES ovarian
HT29 colon = system: HT29 colon
HOP-62 NSCLC = system: HOP-62 NSCLC
A498 renal = system: A498 renal
ACHN renal = system: ACHN renal
MDA-MB-231 breast = system: MDA-MB-231 breast
SK-MEL-2 melanoma = system: SK-MEL-2 melanoma
OVCAR-4 ovarian = system: OVCAR-4 ovarian
EKVX NSCLC = system: EKVX NSCLC
SNB-75 CNS = system: SNB-75 CNS
786-0 renal = system: 786-0 renal

With `CC1(C)CC[C@]2(C(=O)Nc3ccccc3)CC[C@]3(C)C(=CC[C@@H]4[C@@]5(C)CC[C@H](N)C(C)(C)[C@@H]5CC[C@]43C)[C@H]2C1` the GI50 (K-562 leukemia) was 4.07 µM, the TGI (K-562 leukemia) was > 100 µM and the GI50 (SF-268 CNS) was 16.6 µM. For the same molecule, the TGI (SF-268 CNS) was 33.5 µM, the GI50 (OVCAR-3 ovarian) was 13.2 µM and the TGI (OVCAR-3 ovarian) was 26.6 µM. The GI50 (OVCAR-8 ovarian) was 18.2 µM, the TGI (OVCAR-8 ovarian) was 38.3 µM and the GI50 (NCI-H522 lung) was 16.2 µM. The TGI (NCI-H522 lung) was 32.4 µM, the GI50 (OVCAR-5 ovarian) was 16.2 µM and the TGI (OVCAR-5 ovarian) was 30 µM. For the same molecule, the GI50 (T-47D breast) was 14.9 µM, the TGI (T-47D breast) was 34.7 µM and the GI50 (SNB-19 CNS) was 16.4 µM. For the same molecule, the TGI (SNB-19 CNS) was 30.6 µM, the GI50 (RPMI-8226 leukemia) was 19 µM and the TGI (RPMI-8226 leukemia) was 80 µM. For the same molecule, the GI50 (COLO 205 colon) was 15.6 µM, the TGI (COLO 205 colon) was 35.7 µM and the GI50 (NCI-H226 lung) was 14.9 µM. For the same molecule, the TGI (NCI-H226 lung) was 31.8 µM, the GI50 (SR leukemia) was 2.84 µM and the TGI (SR leukemia) was 13.3 µM. It also gave a GI50 (SF-539 CNS) of 15.4 µM, a TGI (SF-539 CNS) of 29.1 µM and a GI50 (SK-MEL-5 melanoma) of 15.5 µM. The TGI (SK-MEL-5 melanoma) was 29 µM, the GI50 (SF-295 CNS) was 15.6 µM and the TGI (SF-295 CNS) was 30.4 µM. It also gave a GI50 (TK-10 renal) of 17.4 µM, a TGI (TK-10 renal) of 33.3 µM and a GI50 (HCT-116 colon) of 9.26 µM. For the same molecule, the TGI (HCT-116 colon) was 26.2 µM, the GI50 (HL-60(TB) leukemia) was 10 µM and the TGI (HL-60(TB) leukemia) was 37.5 µM. For the same molecule, the GI50 (MALME-3M melanoma) was 16.4 µM, the TGI (MALME-3M melanoma) was 30.3 µM and the GI50 (PC-3 prostate) was 15.9 µM. For the same molecule, the TGI (PC-3 prostate) was 31.8 µM, the GI50 (MOLT-4 leukemia) was 15.3 µM and the TGI (MOLT-4 leukemia) was 42 µM. It also gave a GI50 (KM12 colon) of 17.3 µM, a TGI (KM12 colon) of 32.4 µM and a GI50 (NCI-H23 lung) of 16.8 µM. The TGI (NCI-H23 lung) was 31.5 µM, the GI50 (UACC-62 melanoma) was 16.7 µM and the TGI (UACC-62 melanoma) was 30.6 µM. The GI50 (SK-OV-3 ovarian) was 17.2 µM, the TGI (SK-OV-3 ovarian) was 33.6 µM and the GI50 (HOP-92 NSCLC) was 11.5 µM. The TGI (HOP-92 NSCLC) was 26.1 µM, the GI50 (M14 melanoma) was 17.6 µM and the TGI (M14 melanoma) was 33.8 µM. The GI50 (CAKI-1 renal) was 14.6 µM, the TGI (CAKI-1 renal) was 28.5 µM and the GI50 (NCI-H460 lung) was 13.4 µM. The TGI (NCI-H460 lung) was 28 µM, the GI50 (UO-31 renal) was 13.9 µM and the TGI (UO-31 renal) was 27.1 µM. It also gave a GI50 (U251 CNS) of 17.5 µM, a TGI (U251 CNS) of 35.1 µM and a GI50 (MDA-MB-468 breast) of 13.3 µM. It also gave a TGI (MDA-MB-468 breast) of 28.1 µM, a GI50 (DU-145 prostate) of 16.1 µM and a TGI (DU-145 prostate) of 30.6 µM. It also gave a GI50 (HS 578T breast) of 16.2 µM, a TGI (HS 578T breast) of 35.2 µM and a GI50 (UACC-257 melanoma) of 15.8 µM. It also gave a TGI (UACC-257 melanoma) of 32.2 µM, a GI50 (SK-MEL-28 melanoma) of 17.5 µM and a TGI (SK-MEL-28 melanoma) of 31.7 µM. It also gave a GI50 (A549 NSCLC) of 17.4 µM, a TGI (A549 NSCLC) of 41.6 µM and a GI50 (SN12C renal) of 16.5 µM. The TGI (SN12C renal) was 30.6 µM, the GI50 (SW-620 colon) was 5.47 µM and the TGI (SW-620 colon) was 20.3 µM. The GI50 (MCF7 breast) was 3.51 µM, the TGI (MCF7 breast) was 14.7 µM and the GI50 (IGROV1 ovarian) was 15.8 µM. The TGI (IGROV1 ovarian) was 30.2 µM, the GI50 (CCRF-CEM leukemia) was 14.6 µM and the TGI (CCRF-CEM leukemia) was 34.5 µM. It also gave a GI50 (RXF 393 renal) of 10.2 µM, a TGI (RXF 393 renal) of 24 µM and a GI50 (BT-549 breast) of 18.3 µM. The TGI (BT-549 breast) was 32.9 µM, the GI50 (HCT-15 colon) was 13.6 µM and the TGI (HCT-15 colon) was 27.9 µM. It also gave a GI50 (LOX IMVI melanoma) of 4.31 µM, a TGI (LOX IMVI melanoma) of 16.2 µM and a GI50 (MDA-MB-435) of 14.8 µM. For the same molecule, the TGI (MDA-MB-435) was 29 µM, the GI50 (HCC-2998 colon) was 12 µM and the TGI (HCC-2998 colon) was 25.1 µM. The GI50 (NCI/ADR-RES ovarian) was 16.2 µM, the TGI (NCI/ADR-RES ovarian) was 31.9 µM and the GI50 (HT29 colon) was 17.5 µM. For the same molecule, the TGI (HT29 colon) was 39.9 µM, the GI50 (HOP-62 NSCLC) was 15.8 µM and the TGI (HOP-62 NSCLC) was 32.4 µM. The GI50 (A498 renal) was 13.2 µM, the TGI (A498 renal) was 27.1 µM and the GI50 (ACHN renal) was 15.9 µM. It also gave a TGI (ACHN renal) of 29.5 µM, a GI50 (MDA-MB-231 breast) of 16.1 µM and a TGI (MDA-MB-231 breast) of 30 µM. The GI50 (SK-MEL-2 melanoma) was 17.1 µM, the TGI (SK-MEL-2 melanoma) was 32.3 µM and the GI50 (OVCAR-4 ovarian) was 15.8 µM. For the same molecule, the TGI (OVCAR-4 ovarian) was 31.4 µM, the GI50 (EKVX NSCLC) was 15.6 µM and the TGI (EKVX NSCLC) was 30.4 µM. For the same molecule, the GI50 (SNB-75 CNS) was 12.2 µM, the TGI (SNB-75 CNS) was 25.5 µM and the GI50 (786-0 renal) was 13.8 µM. The TGI (786-0 renal) was 29 µM.
